{"source": "paper PMC11233931", "about": "“Remodeling tumor‐associated macrophage for anti‐cancer effects by rational design of irreversible inhibition of mitogen‐activated protein kinase‐activated protein kinase 2” (MedComm, 2024)", "assay_in_all_cases": "Eurofins kinase selectivity profile against 380 other human recombinant kinases (Table S2)", "type_in_all_cases": "biochemical", "key": {"[1]": {"target": "T1, 380 human recombinant protein kinases (Homo sapiens, UniProt P54764)", "T1 construct": "purchased Eurofins (Celle Lévescault)", "conditions": "EphA4(h), read-out: Inhibition rate", "outline": "(§1)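 To gauge specificity for MK2, the compound is profiled externally at various concentrations on recombinant human kinases, 380 in total.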"}, "[2]": {"target": "T2, 380 human recombinant protein kinases (Homo sapiens, UniProt P49840)", "T2 construct": "purchased Eurofins (Celle Lévescault)", "T2 sequence (P49840 whole entry)": "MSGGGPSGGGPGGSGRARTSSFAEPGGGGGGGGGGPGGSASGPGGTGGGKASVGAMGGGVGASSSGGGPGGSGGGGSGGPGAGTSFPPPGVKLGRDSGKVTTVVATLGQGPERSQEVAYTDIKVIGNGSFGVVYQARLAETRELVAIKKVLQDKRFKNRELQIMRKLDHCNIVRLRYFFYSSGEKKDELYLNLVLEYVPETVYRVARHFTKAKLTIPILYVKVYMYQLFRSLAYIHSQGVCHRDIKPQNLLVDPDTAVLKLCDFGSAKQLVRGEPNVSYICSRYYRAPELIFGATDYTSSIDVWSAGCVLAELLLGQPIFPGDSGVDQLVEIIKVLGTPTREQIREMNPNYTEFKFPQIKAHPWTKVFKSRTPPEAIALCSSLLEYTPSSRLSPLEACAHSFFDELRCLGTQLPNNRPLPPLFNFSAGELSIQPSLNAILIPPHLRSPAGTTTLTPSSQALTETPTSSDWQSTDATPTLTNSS", "conditions": "GSK3α(h), read-out: Inhibition rate", "outline": "as §1"}, "[3]": {"target": "T3, 380 human recombinant protein kinases (Homo sapiens, UniProt Q8WTQ7)", "T3 construct": "purchased Eurofins (Celle Lévescault)", "T3 sequence (Q8WTQ7 1-553)": "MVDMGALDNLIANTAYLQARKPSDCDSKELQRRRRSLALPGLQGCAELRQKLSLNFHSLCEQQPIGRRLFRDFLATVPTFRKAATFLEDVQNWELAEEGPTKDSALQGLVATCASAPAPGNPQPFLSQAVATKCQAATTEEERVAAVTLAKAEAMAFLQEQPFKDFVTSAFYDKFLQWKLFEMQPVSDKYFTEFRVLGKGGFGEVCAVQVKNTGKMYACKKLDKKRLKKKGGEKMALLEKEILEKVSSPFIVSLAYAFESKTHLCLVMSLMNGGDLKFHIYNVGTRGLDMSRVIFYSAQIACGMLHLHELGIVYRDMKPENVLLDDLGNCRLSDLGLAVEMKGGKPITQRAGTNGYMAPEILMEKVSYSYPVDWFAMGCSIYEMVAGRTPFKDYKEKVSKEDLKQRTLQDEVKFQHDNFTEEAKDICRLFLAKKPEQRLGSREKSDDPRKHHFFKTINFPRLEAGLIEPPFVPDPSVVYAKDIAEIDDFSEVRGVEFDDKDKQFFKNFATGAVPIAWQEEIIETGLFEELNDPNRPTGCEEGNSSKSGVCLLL", "conditions": "GRK7(h), read-out: Inhibition rate", "outline": "as §1"}, "[4]": {"target": "T4, 380 human recombinant protein kinases (Homo sapiens, UniProt Q7KZI7)", "T4 construct": "purchased Eurofins (Celle Lévescault)", "T4 sequence (Q7KZI7 whole entry)": "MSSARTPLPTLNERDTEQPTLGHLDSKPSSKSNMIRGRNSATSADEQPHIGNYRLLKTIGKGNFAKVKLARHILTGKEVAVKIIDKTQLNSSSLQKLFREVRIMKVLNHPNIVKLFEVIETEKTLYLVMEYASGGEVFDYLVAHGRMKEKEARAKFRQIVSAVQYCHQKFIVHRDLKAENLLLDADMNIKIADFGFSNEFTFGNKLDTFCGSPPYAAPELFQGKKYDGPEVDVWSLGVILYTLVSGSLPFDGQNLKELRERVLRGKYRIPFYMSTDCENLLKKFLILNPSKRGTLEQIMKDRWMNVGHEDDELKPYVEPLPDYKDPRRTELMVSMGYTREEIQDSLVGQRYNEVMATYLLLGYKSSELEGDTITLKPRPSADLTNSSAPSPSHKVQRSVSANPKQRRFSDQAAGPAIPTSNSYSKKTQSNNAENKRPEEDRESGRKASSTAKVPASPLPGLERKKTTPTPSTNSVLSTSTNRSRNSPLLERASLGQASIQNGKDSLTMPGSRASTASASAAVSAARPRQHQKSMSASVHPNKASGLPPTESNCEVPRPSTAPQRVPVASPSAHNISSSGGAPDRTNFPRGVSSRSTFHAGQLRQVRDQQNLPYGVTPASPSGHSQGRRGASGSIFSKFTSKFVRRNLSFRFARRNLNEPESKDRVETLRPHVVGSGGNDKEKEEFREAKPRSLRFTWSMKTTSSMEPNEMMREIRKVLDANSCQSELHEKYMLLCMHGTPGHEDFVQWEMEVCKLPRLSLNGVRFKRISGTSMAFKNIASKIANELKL", "conditions": "PAR-1Bα(h), read-out: Inhibition rate", "outline": "as §1"}, "[5]": {"target": "T5, 380 human recombinant protein kinases (Homo sapiens, UniProt Q06187)", "T5 construct": "purchased Eurofins (Celle Lévescault)", "T5 sequence (Q06187 whole entry)": "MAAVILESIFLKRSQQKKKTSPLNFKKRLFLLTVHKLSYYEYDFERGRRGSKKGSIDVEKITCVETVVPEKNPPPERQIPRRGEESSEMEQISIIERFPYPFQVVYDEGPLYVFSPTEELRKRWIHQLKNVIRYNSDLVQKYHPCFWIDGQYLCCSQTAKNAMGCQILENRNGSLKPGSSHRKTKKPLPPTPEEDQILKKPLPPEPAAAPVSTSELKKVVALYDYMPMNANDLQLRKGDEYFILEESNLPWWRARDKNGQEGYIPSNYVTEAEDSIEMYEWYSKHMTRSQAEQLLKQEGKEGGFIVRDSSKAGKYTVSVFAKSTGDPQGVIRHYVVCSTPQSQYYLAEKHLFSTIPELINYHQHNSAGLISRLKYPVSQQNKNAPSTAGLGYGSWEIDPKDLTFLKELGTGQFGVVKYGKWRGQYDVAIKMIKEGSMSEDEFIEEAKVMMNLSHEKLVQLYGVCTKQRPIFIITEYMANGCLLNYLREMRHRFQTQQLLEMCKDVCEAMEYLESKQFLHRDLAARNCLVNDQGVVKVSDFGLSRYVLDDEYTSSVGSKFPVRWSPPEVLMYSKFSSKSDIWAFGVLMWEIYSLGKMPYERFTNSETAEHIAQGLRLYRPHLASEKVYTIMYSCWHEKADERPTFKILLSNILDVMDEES", "conditions": "BTK(h), read-out: Inhibition rate", "outline": "as §1"}, "[6]": {"target": "T6, 380 human recombinant protein kinases (Homo sapiens, UniProt P00533)", "T6 construct": "purchased Eurofins (Celle Lévescault)", "T6 sequence (P00533 25-1210)": "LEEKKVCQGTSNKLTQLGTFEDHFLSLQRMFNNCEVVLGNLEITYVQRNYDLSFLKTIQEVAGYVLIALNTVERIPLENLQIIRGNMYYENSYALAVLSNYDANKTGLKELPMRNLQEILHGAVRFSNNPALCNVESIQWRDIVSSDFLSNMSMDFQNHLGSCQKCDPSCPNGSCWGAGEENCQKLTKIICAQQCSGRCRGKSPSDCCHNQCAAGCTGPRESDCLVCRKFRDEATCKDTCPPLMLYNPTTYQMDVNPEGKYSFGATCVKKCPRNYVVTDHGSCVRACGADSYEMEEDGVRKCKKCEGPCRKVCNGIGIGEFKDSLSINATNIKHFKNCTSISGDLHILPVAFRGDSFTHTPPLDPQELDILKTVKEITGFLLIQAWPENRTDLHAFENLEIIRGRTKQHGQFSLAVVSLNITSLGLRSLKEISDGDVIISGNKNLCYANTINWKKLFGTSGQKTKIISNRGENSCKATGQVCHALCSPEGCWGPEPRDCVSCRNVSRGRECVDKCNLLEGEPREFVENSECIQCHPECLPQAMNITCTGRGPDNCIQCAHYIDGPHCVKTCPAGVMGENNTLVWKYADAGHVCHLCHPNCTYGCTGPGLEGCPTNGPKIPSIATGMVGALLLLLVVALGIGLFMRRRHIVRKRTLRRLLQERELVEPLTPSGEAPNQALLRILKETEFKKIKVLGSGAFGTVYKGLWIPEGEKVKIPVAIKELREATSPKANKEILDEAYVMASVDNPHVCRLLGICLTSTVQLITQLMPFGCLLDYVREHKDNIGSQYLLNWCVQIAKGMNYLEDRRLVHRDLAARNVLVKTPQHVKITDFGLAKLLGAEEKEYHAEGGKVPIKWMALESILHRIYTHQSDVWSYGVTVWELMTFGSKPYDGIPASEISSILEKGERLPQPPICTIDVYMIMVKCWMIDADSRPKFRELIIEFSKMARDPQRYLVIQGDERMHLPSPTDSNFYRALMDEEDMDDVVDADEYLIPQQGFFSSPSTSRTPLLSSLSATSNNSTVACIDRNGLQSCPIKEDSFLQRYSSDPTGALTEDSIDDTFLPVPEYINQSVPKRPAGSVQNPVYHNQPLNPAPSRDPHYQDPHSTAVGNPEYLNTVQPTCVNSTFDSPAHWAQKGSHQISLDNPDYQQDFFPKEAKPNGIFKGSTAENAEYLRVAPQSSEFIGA", "conditions": "EGFR(h), read-out: Inhibition rate", "outline": "as §1"}, "[7]": {"target": "T7, 380 human recombinant protein kinases (Homo sapiens, UniProt Q13237)", "T7 construct": "purchased Eurofins (Celle Lévescault)", "T7 sequence (Q13237 1-762)": "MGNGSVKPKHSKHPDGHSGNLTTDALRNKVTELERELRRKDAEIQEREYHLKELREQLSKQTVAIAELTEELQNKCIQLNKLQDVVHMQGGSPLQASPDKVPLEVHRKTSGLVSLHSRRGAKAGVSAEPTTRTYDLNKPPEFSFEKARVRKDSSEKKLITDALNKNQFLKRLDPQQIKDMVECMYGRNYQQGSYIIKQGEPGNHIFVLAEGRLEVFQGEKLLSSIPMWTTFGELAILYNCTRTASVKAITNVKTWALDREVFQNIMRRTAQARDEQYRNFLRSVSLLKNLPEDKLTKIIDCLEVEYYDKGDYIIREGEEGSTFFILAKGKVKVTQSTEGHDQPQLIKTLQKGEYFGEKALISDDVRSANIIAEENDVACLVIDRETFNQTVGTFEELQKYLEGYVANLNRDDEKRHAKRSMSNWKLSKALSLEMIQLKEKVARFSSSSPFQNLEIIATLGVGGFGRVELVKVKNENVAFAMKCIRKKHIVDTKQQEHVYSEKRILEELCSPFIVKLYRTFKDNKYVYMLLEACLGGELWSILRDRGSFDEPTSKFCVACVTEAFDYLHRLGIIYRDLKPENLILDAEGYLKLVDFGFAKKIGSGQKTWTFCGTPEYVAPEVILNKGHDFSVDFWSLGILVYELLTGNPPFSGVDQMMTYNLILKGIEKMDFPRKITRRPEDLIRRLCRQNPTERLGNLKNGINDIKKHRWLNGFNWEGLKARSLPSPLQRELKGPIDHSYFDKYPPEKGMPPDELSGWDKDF", "conditions": "PRKG2(h), read-out: Inhibition rate", "outline": "as §1"}, "[8]": {"target": "T8, 380 human recombinant protein kinases (Homo sapiens, UniProt P48736)", "T8 construct": "purchased Eurofins (Celle Lévescault)", "T8 sequence (P48736 whole entry)": "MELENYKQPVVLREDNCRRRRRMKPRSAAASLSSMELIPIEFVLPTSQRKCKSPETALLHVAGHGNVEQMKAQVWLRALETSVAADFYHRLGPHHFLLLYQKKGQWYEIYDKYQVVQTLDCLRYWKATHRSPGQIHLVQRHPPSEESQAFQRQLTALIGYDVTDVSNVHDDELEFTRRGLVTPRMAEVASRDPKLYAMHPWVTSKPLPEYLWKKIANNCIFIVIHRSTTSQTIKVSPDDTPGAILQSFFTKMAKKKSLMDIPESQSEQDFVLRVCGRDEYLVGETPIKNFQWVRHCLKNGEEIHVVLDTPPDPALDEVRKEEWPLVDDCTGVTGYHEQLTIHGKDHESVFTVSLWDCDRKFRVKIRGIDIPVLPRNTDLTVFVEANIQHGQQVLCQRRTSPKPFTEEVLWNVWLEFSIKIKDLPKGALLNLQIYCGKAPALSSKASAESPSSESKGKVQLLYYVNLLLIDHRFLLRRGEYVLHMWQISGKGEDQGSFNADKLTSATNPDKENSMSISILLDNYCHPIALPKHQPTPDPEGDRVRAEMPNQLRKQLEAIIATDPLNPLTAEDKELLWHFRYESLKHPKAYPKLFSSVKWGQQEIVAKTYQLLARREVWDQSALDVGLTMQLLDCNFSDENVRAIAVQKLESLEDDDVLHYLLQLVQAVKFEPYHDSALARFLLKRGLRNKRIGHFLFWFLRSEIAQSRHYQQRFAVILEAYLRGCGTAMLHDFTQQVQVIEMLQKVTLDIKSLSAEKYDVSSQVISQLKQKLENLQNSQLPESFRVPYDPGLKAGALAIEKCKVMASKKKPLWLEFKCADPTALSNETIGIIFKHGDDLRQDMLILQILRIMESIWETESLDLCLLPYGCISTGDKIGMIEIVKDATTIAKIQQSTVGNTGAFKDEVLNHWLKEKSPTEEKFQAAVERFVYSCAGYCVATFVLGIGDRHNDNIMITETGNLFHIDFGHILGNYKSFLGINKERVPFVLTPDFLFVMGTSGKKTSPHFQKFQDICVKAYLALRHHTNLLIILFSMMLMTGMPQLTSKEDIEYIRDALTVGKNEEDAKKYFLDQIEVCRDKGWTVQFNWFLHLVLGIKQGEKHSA", "conditions": "PI3 Kinase (p120γ)(h), read-out: Inhibition rate (%)", "outline": "as §1"}, "[9]": {"target": "T9, 380 human recombinant protein kinases (Homo sapiens, UniProt Q96NX5)", "T9 construct": "purchased Eurofins (Celle Lévescault)", "T9 sequence (Q96NX5 whole entry)": "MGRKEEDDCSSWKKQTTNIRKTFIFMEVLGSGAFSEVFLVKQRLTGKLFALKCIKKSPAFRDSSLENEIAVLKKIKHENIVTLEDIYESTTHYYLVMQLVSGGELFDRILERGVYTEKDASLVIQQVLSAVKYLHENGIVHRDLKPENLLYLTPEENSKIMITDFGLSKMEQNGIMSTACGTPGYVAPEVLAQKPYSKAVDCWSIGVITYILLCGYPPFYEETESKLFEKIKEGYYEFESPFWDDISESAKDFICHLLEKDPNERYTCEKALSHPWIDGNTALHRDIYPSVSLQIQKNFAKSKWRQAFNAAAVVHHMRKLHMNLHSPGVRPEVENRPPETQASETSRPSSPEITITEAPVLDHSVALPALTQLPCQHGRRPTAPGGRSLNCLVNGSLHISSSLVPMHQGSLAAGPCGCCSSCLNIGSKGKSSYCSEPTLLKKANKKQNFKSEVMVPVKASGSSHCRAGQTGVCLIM", "conditions": "CaMKIγ(h), read-out: Inhibition rate", "outline": "as §1"}, "[10]": {"target": "T10, 380 human recombinant protein kinases (Homo sapiens, UniProt P31749)", "T10 construct": "purchased Eurofins (Celle Lévescault)", "conditions": "PKBα(h), read-out: Inhibition rate", "outline": "as §1"}}}
{"smiles": "C=CC(=O)Nc1cc(-c2cc(-c3cc4c([nH]3)CCNC4=O)ccn2)ccc1OC(F)(F)F", "note": "[compound 11]", "values": [{"measurement": "inhibition at 0.01 µM", "setting": "[1]; 10 nM", "result": -1, "unit": "%"}, {"measurement": "inhibition at 0.1 µM", "setting": "[1]; 100 nM", "result": 3, "unit": "%"}, {"measurement": "inhibition at 1 µM", "setting": "[1]; 1000 nM", "result": -7, "unit": "%"}, {"measurement": "inhibition at 0.01 µM", "setting": "[2]; 10 nM", "result": 15, "unit": "%"}, {"measurement": "inhibition at 0.1 µM", "setting": "[2]; 100 nM", "result": -9, "unit": "%"}, {"measurement": "inhibition at 1 µM", "setting": "[2]; 1000 nM", "result": 10, "unit": "%"}, {"measurement": "inhibition at 0.01 µM", "setting": "[3]; 10 nM", "result": -4, "unit": "%"}, {"measurement": "inhibition at 0.1 µM", "setting": "[3]; 100 nM", "result": -6, "unit": "%"}, {"measurement": "inhibition at 1 µM", "setting": "[3]; 1000 nM", "result": 2, "unit": "%"}, {"measurement": "inhibition at 0.01 µM", "setting": "[4]; 10 nM", "result": -6, "unit": "%"}, {"measurement": "inhibition at 0.1 µM", "setting": "[4]; 100 nM", "result": -2, "unit": "%"}, {"measurement": "inhibition at 1 µM", "setting": "[4]; 1000 nM", "result": -3, "unit": "%"}, {"measurement": "inhibition at 0.01 µM", "setting": "[5]; 10 nM", "result": -4, "unit": "%"}, {"measurement": "inhibition at 0.1 µM", "setting": "[5]; 100 nM", "result": 10, "unit": "%"}, {"measurement": "inhibition at 1 µM", "setting": "[5]; 1000 nM", "result": 17, "unit": "%"}, {"measurement": "inhibition at 0.01 µM", "setting": "[6]; 10 nM", "result": 3, "unit": "%"}, {"measurement": "inhibition at 0.1 µM", "setting": "[6]; 100 nM", "result": -20, "unit": "%"}, {"measurement": "inhibition at 1 µM", "setting": "[6]; 1000 nM", "result": -6, "unit": "%"}, {"measurement": "inhibition at 0.01 µM", "setting": "[7]; 10 nM", "result": 7, "unit": "%"}, {"measurement": "inhibition at 0.1 µM", "setting": "[7]; 100 nM", "result": 19, "unit": "%"}, {"measurement": "inhibition at 1 µM", "setting": "[7]; 1000 nM", "result": 35, "unit": "%"}, {"measurement": "inhibition at 0.01 µM", "setting": "[8]; 10 nM", "result": 1, "unit": "%"}, {"measurement": "inhibition at 0.1 µM", "setting": "[8]; 100 nM", "result": -1, "unit": "%"}, {"measurement": "inhibition at 1 µM", "setting": "[8]; 1000 nM", "result": 3, "unit": "%"}, {"measurement": "inhibition at 0.01 µM", "setting": "[9]; 10 nM", "result": -9, "unit": "%"}, {"measurement": "inhibition at 0.1 µM", "setting": "[9]; 100 nM", "result": -14, "unit": "%"}, {"measurement": "inhibition at 1 µM", "setting": "[9]; 1000 nM", "result": -15, "unit": "%"}, {"measurement": "inhibition at 0.01 µM", "setting": "[10]; 10 nM", "result": 2, "unit": "%"}, {"measurement": "inhibition at 0.1 µM", "setting": "[10]; 100 nM", "result": 4, "unit": "%"}, {"measurement": "inhibition at 1 µM", "setting": "[10]; 1000 nM", "result": 14, "unit": "%"}]}
